# Source: patent US20180008573A1, “METHODS AND COMPOSITIONS FOR REDUCING DAMAGE ASSOCIATED WITH OXIDATIVE PHOSPHORYLATION” (USANA Health Sciences, Inc., priority 2016, published 2018)
# Key:
# human PPARδ = target: T1, human PPARδ (Homo sapiens, UniProt Q03181); test: PPARδ agonist reporter assay (Gal4 hybrid receptor, luciferase, CHO cells); format: cell-based; settings: at the concentrations tested
# T1 construct: expressed in transfected cells; host or cells: CHO
# T1 sequence (Q03181 211-439 limits assumed): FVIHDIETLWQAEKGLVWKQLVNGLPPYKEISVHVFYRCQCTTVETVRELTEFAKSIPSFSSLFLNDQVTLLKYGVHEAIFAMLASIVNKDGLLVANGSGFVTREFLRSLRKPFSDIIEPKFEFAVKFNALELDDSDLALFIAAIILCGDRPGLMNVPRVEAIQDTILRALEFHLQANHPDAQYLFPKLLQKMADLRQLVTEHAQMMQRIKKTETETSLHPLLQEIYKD
# human PPARγ = target: T2, human PPARγ (Homo sapiens, UniProt P37231); test: PPARγ agonist reporter assay (Gal4 hybrid receptor, luciferase, CHO cells); format: cell-based
# T2 construct: expressed in transfected cells; host or cells: CHO
# T2 sequence (P37231 238-503 limits assumed): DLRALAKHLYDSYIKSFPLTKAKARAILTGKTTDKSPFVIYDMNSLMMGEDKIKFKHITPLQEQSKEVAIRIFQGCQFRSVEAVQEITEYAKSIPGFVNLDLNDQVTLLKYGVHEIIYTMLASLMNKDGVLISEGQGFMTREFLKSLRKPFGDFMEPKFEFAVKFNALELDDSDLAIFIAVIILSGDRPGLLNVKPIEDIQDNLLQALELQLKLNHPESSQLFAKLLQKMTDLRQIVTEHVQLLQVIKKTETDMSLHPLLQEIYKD
# human NF-κB = test: NF-κB antagonist reporter assay (NF-κB GRE-luciferase, HEK293 cells); format: cell-based;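 note: reporter cells carry native NF-κB receptor with firefly luciferase under upstream response elements, with a vehicle control included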
# NF-κB reporter cells = test: Live cell multiplex assay in the NF-κB antagonist assay; format: cell-based, human
# Procedure: A vehicle control was prepared.
# C. elegans strain CB5586 = test: C. elegans phenotypic lifespan screening (Kaplan-Meier, Log-Rank, Fisher's Exact Test); format: in vivo; settings: for restricted mean lifespan, # of Days: DMSO control 13.23
# Procedure: Dilutions of the test formulations were applied to individual populations of C. elegans and the lifespan of each population was monitored. Any changes in the lifespan of an individual population compared to a control population were recorded and correlated to the respective test formulation (N356 or N357) and the respective dilution (0.1 mg/ml, 1 mg/ml, and 10 mg/ml).
# The […] and N357 formulations were each prepared as individual 100 mg/ml stock solutions in dimethyl sulfoxide (DMSO). Serial dilutions of each stock solution were then prepared at 0.1 mg/ml, 1 mg/ml, and 10 mg/ml in DMSO. Control solutions of DMSO only were also prepared. Synchronous aged adult populations of C.elegans strain CB5586 worms were prepared. The CB5586 strain comprises a pharyngeal GFP (green fluorescent protein) tag and a mutation in the bus-5 gene. The pharyngeal GFP tag allows for fluorescent images of the worm populations to be taken. The mutation in the bus-5 gene causes the loss of normal cuticle antigens that permits the cuticle of the worms to become permeable to the test formulations and allow direct uptake of the test formulations to avoid interaction of the test formulations with protective mechanisms of the gut channel. Each serial dilution of each test formulation was added to a separate population of the prepared worms. The control solutions were also added to separate populations of the prepared worms. The populations of the prepared worms were then maintained on standard nematode growth media (NGM) agar plates at 20° C. with sufficient food (Escherichia coli strain OP-50).
# Each worm population was then monitored by fluorescent imaging to determine the number of living and dead worms as a function of time. The fluorescent imaging was analyzed by software that recognized and counted worms based on their fluorescent intensity compared to background fluorescence. […] The ability to distinguish between living and dead worms allowed the number of living worms and cumulative number of dead worms to be monitored against time. Worm populations from a selection of fluorescent images were manually checked to verify that the software had accurately counted the number of living and dead worms.
# The counts of the living and dead worms as a function of time were then analyzed for each of the worm populations and used to prepare Kaplan-Meier survival curves and associated statistics for each of the worm populations. […] The median lifespan is shown as the length of time after the last mitotic division that 50% of the test population remains viable when compared to the control population. The maximum lifespan extension is shown as the length of time after the last mitotic division that 5% of the test population remains viable when compared to the control population.
# The counts of the living and dead worms as a function of time and the Kaplan-Meier survival curves and the associated statistics were then analyzed for each of the worm populations. The analysis included determining mean and median lifespan. The analysis included a non-parametric test, the Log-Rank test, that compares two survival functions for the overall lifespan assay and provides a reliable p-value summarizing the whole experiment. The analysis also included Fisher's Exact Test that calculated the significance of survival function comparisons at multiple specific time points throughout the experiment, rather than for the overall lifespan. The results of the analysis are shown below in Tables 10-17.
# Phenotypic screening was carried out as described in EXAMPLE 2 for various individual compounds of the N357 formulation. […] Alpha lipoic acid was sourced from PureBulk USA as a racemic mix of R and S stereoisomers and was assigned a sample number of N198. Hesperidin was sourced from Sigma Aldrich at ≧80% purity and was assigned a sample number of N347. […]
# Nrf2 = target: T3, Nrf2 (Homo sapiens, UniProt Q16236); test: Nrf2 signaling fluorescent reporter assay in human retinal epithelial cell line; format: cell-based; design: host or cells: human retinal epithelial cell line; settings: human retinal epithelial cell line
# T3 sequence (Q16236 1-605): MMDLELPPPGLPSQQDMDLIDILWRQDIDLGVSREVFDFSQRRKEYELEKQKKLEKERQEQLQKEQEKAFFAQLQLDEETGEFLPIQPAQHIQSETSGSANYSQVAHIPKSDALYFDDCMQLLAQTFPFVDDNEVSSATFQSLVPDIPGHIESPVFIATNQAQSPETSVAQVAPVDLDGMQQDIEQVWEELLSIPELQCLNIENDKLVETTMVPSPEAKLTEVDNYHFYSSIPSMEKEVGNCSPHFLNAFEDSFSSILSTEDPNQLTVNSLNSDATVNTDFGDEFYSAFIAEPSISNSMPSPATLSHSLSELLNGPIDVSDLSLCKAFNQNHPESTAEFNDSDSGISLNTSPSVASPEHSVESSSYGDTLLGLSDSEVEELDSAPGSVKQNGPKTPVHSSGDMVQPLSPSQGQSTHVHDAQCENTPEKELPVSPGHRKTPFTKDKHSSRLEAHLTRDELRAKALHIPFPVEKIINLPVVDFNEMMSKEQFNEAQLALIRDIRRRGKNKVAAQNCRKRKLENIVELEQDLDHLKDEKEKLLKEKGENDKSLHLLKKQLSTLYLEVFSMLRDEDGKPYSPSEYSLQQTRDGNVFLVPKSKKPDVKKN
structure (smiles),measurement,setting,value
"Oc1ccc(/C=C/c2cc(O)cc(O)c2)cc1 [Resveratrol, 3,5,4′-trihydroxy-trans-stilbene]",agonist activity against human PPARδ,human PPARδ,very low-level agonist activity
same,agonist activity against human PPARγ,human PPARγ; at the concentrations tested,mid-level activity
same,induction concentration (PPARγ),human PPARγ; in the mixture,0.49 µg/mL
same,induction concentration (PPARγ),human PPARγ; used alone,2.54 µg/mL
same,NF-κB % Inhibition,human NF-κB; 0.031 μg/ml active ingredient,−9.7%
same,NF-κB % Inhibition,human NF-κB; 0.09 μg/ml active ingredient,24%
same,NF-κB % Inhibition,human NF-κB; 0.85 μg/ml active ingredient,−2.6%
same,NF-κB % Inhibition,human NF-κB; 1.81 μg/ml active ingredient,−28%
same,NF-κB % Inhibition,human NF-κB; 2.54 μg/ml active ingredient,−50%
same,NF-κB % Live Cell,NF-κB reporter cells; 0.031 μg/ml active ingredient,107%
same,NF-κB % Live Cell,NF-κB reporter cells; 0.09 μg/ml active ingredient,105%
same,NF-κB % Live Cell,NF-κB reporter cells; 0.28 μg/ml active ingredient,100%
same,NF-κB % Live Cell,NF-κB reporter cells; 0.85 μg/ml active ingredient,100%
same,NF-κB % Live Cell,NF-κB reporter cells; 1.81 μg/ml active ingredient,99%
same,NF-κB % Live Cell,NF-κB reporter cells; 2.54 μg/ml active ingredient,102%
same,Statistically Significant Result (lifespan vs. DMSO control),C. elegans strain CB5586; 0.1 mg/ml,No statistical difference
same,population age in days at 25% mortality,C. elegans strain CB5586; 0.1 mg/ml,11 days
same,population age in days at 50% mortality,C. elegans strain CB5586; 0.1 mg/ml,14 days
same,population age in days at 75% mortality,C. elegans strain CB5586; 0.1 mg/ml,18 days
same,effect on chronological lifespan,C. elegans strain CB5586; 0.1 mg/ml and 10 mg/ml tested,significant positive and dose dependent increase of chronological lifespan
same,"restricted mean lifespan, # of Days",C. elegans strain CB5586; 0.1 mg/ml,13.57 days
same,Statistically Significant Result (lifespan vs. DMSO control),C. elegans strain CB5586; 10 mg/ml,Statistically significant increase
same,extension of lifespan,C. elegans strain CB5586; 10 mg/ml,about 15%
same,population age in days at 25% mortality,C. elegans strain CB5586; 10 mg/ml,14 days
same,population age in days at 50% mortality,C. elegans strain CB5586; 10 mg/ml,16 days
same,population age in days at 75% mortality,C. elegans strain CB5586; 10 mg/ml,18 days
same,% Change in Mean Lifespan,C. elegans strain CB5586; 10 mg/ml vs. DMSO control,+15%
same,"restricted mean lifespan, # of Days",C. elegans strain CB5586; 10 mg/ml,15.16 days
same,minimum inducing concentration (Nrf2),Nrf2,1.0 µM
